ChEMBL document CHEMBL4725298, “Exploration of piperazine-derived thioureas as antibacterial and anti-inflammatory agents. In vitro evaluation against clinical isolates of colistin-resistant Acinetobacter baumannii” (Bioorg Med Chem Lett, 2020)
Converted amounts (≈) assume the structure as drawn. The source made the active and inactive calls. The calls are words filed in the database; no cut-off is given here.

Legend:
Acinetobacter baumannii [1] = assay: Antibacterial activity against Acinetobacter baumannii 22P assessed as fractional inhibitory concentration incubated for 24 hrs by standard broth microdilution method relative to control; format: functional
Acinetobacter baumannii [2] = assay: Antibacterial activity against colistin-resistant Acinetobacter baumannii 17 assessed as reduction in bacterial growth incubated for 24 hrs by standard broth microdilution method; format: functional
Acinetobacter baumannii [3] = assay: Antibacterial activity against colistin-resistant Acinetobacter baumannii 11 assessed as reduction in bacterial growth incubated for 24 hrs by standard broth microdilution method; format: functional
Acinetobacter baumannii [4] = assay: Antibacterial activity against colistin-resistant Acinetobacter baumannii 24 assessed as reduction in bacterial growth incubated for 24 hrs by standard broth microdilution method; format: functional
Acinetobacter baumannii [5] = assay: Antibacterial activity against colistin-resistant Acinetobacter baumannii 22P assessed as reduction in bacterial growth incubated for 24 hrs by standard broth microdilution method; format: functional
Acinetobacter baumannii [6] = assay: Antibacterial activity against Acinetobacter baumannii 21R assessed as fractional inhibitory concentration incubated for 24 hrs by standard broth microdilution method relative to control; format: functional
Acinetobacter baumannii [7] = assay: Antibacterial activity against colistin-resistant Acinetobacter baumannii 21R assessed as reduction in bacterial growth incubated for 24 hrs by standard broth microdilution method; format: functional
Acinetobacter baumannii [8] = assay: Antibacterial activity against colistin-resistant Acinetobacter baumannii 14 assessed as reduction in bacterial growth incubated for 24 hrs by standard broth microdilution method; format: functional
[9] = Cytotoxicity against human A549 cells; format: cell-based
RAW264.7 [10] = assay: Antiinflammatory activity against mouse RAW264.7 cells assessed as reduction in LPS-induced NO production at 50 uM incubated for 24 hrs by Griess assay; format: functional, cell-based
RAW264.7 [11] = assay: Antiinflammatory activity against mouse RAW264.7 cells assessed as reduction in LPS-induced NO production at 1 to 10 uM incubated for 24 hrs by Griess assay relative to control; format: functional; settings: dose microM 1-10
RAW264.7 [12] = assay: Cytotoxicity against mouse RAW264.7 cells assessed as reduction in cell viability at 1 to 10 uM incubated for 24 hrs; format: cell-based; settings: raw264.7, 24 h, dose 1-10 µM
Acinetobacter baumannii [13] = assay: Antibacterial activity against Acinetobacter baumannii 21R assessed as reduction in bacterial growth in presence of colistin incubated for 24 hrs by standard broth microdilution method; format: functional
Acinetobacter baumannii [14] = assay: Bactericidal activity against colistin-resistant Acinetobacter baumannii 21R assessed as log10 reduction of bacterial colony forming unit at 2 times of MIC incubated for 4 hrs by time kill curve based analysis; format: functional
Acinetobacter baumannii [15] = assay: Potentiation of colistin-induced antibacterial activity against Acinetobacter baumannii 22P assessed as fold reduction in colistin MIC incubated for 24 hrs by standard broth microdilution method; format: functional
Acinetobacter baumannii [16] = assay: Bactericidal activity against colistin-resistant Acinetobacter baumannii 22P at 12.5 to 50 uM incubated upto 24 hrs by time kill curve based analysis; format: functional, organism-based; settings: dose microM 12.5-50, time hrs <=24
Acinetobacter baumannii [17] = assay: Potentiation of colistin-induced antibacterial activity against Acinetobacter baumannii 21R assessed as fold reduction in colistin MIC incubated for 24 hrs by standard broth microdilution method; format: functional
Acinetobacter baumannii [18] = assay: Antibacterial activity against Acinetobacter baumannii 22P assessed as reduction in bacterial growth in presence of colistin incubated for 24 hrs by standard broth microdilution method; format: functional
Acinetobacter baumannii [19] = assay: Synergistic antibacterial activity against Acinetobacter baumannii 22P assessed as fractional inhibitory concentration index incubated for 24 hrs in presence of colistin by standard broth microdilution method; format: functional
Acinetobacter baumannii [20] = assay: Synergistic antibacterial activity against Acinetobacter baumannii 21R assessed as fractional inhibitory concentration index incubated for 24 hrs in presence of colistin by standard broth microdilution method; format: functional
Acinetobacter baumannii [21] = assay: Bactericidal activity against colistin-resistant Acinetobacter baumannii 21R at 4 times of MIC incubated for 4 hrs by time kill curve based analysis; format: functional, organism-based

Compound | MIC (Acinetobacter baumannii [2]) | MIC (Acinetobacter baumannii [4]) | MIC (Acinetobacter baumannii [5]) | MIC (Acinetobacter baumannii [7]) | MIC (Acinetobacter baumannii [8]) | CC50 [9] | inhibition (RAW264.7 [10]) | other results
COLISTIN | > 111 µM | 7 µM | 3540 µM | 1770 µM | 56 µM |  |  | FIC (Acinetobacter baumannii [1]): 0.25; MIC (Acinetobacter baumannii [3]): 14 µM; FIC (Acinetobacter baumannii [6]): 0.38
CC1CN(C(=O)CC2CCCCC2)CCN1C(=S)Nc1ccc(Cl)cc1 (stereo unspecified) |  | 25 µM (≈ 9.85 µg/mL) | 12.5 µM (≈ 4.92 µg/mL) | 12.5 µM (≈ 4.92 µg/mL) | 50 µM (≈ 19.7 µg/mL) | 200 µM |  | 
C[C@@H]1CN(C(=O)CC(C)(C)C)CCN1C(=S)Nc1cc(C(F)(F)F)cc(C(F)(F)F)c1 |  | 6.25 µM (≈ 2.93 µg/mL) | 12.5 µM (≈ 5.87 µg/mL) | 6.25 µM (≈ 2.93 µg/mL) |  | 162 µM |  | 
O=C(Cc1ccccc1)N1CCN(C(=S)Nc2cc(C(F)(F)F)cc(C(F)(F)F)c2)C(c2ccccc2)C1 (stereo unspecified) | 3.12 µM (≈ 1.72 µg/mL) |  |  |  |  |  | Active | 
CC1CN(C(=O)CC2CCCCC2)CCN1C(=S)Nc1ccc([N+](=O)[O-])cc1 (stereo unspecified) |  |  | 12.5 µM (≈ 5.06 µg/mL) | 25 µM (≈ 10.1 µg/mL) |  |  | Active | Activity (Acinetobacter baumannii [2]): inactive; Activity (Acinetobacter baumannii [3]): inactive; Activity (Acinetobacter baumannii [4]): inactive; Activity (Acinetobacter baumannii [8]): inactive
C[C@H]1CN(C(=O)CC(C)(C)C)CCN1C(=S)Nc1cc(C(F)(F)F)cc(C(F)(F)F)c1 |  | 12.5 µM (≈ 5.87 µg/mL) | 6.25 µM (≈ 2.93 µg/mL) | 6.25 µM (≈ 2.93 µg/mL) |  | 73.5 µM |  | 
CC1CN(C(=O)CC2CCCCC2)CCN1C(=S)Nc1cc(C(F)(F)F)cc(C(F)(F)F)c1 (stereo unspecified) |  | 25 µM (≈ 12.4 µg/mL) | 1.56 µM (≈ 0.773 µg/mL) | 3.12 µM (≈ 1.55 µg/mL) | 50 µM (≈ 24.8 µg/mL) | 82 µM | Active | inhibition (INH) (RAW264.7 [11]): 40%
CC(C)(C)OC(=O)N1CCN(C(=S)Nc2cc(C(F)(F)F)cc(C(F)(F)F)c2)C(c2ccccc2)C1 (stereo unspecified) | 6.25 µM (≈ 3.33 µg/mL) |  |  |  | 12.5 µM (≈ 6.67 µg/mL) | 127 µM | Active | Activity (RAW264.7 [12]): Toxic; inhibition (INH) (RAW264.7 [11]): >=80%
CC(C)(C)OC(=O)N1CCN(C(=S)Nc2cc(C(F)(F)F)cc(C(F)(F)F)c2)CC1 | 6.25 µM (≈ 2.86 µg/mL) |  | 12.5 µM (≈ 5.72 µg/mL) | 6.25 µM (≈ 2.86 µg/mL) | 6.25 µM (≈ 2.86 µg/mL) | 109 µM | Active | MIC (Acinetobacter baumannii [13]): 0.78 µM; FIC (Acinetobacter baumannii [1]): 0.12; Activity (Acinetobacter baumannii [14]): 3 log10CFU/ml; MIC (Acinetobacter baumannii [3]): 12.5 µM (≈ 5.72 µg/mL); fold change (FC) (Acinetobacter baumannii [15]): 4; Activity (Acinetobacter baumannii [16]): inactive; fold change (FC) (Acinetobacter baumannii [17]): 4; FIC (Acinetobacter baumannii [6]): 0.12; MIC (Acinetobacter baumannii [18]): 1.56 µM; fractional inhibitory concentration index (FICI) (Acinetobacter baumannii [19]): 0.37; fractional inhibitory concentration index (FICI) (Acinetobacter baumannii [20]): 0.5; Activity (Acinetobacter baumannii [21]): Active
